According to patent US5545618A, “GLP-1 analogs useful for diabetes treatment” (priority 1993, dated 1996):
Where no end group is shown, it is not given here.

test: degradation in plasma by RP-HPLC; type: in vitro ADME; settings: incubation in plasma for 60 minutes; note: key: +: degradation was not observed; -: was complete after this time
Description: In this assay, the analog is added to plasma for various times and recovered similarly to the method described above for radiolabel sequencing analysis. Specifically, the analog at a concentration of 100 nM in RIA buffer is spiked into 1 mL plasma to a final concentration of 1 nM and after incubation in 37° C. circulating water bath for various preset times, the reaction is stopped by bringing the plasma to 0.1% (w/v) in bacitracin.
The peptides are then purified by Sep-Pak extraction as described above. The eluates are concentrated to about 1 mL on a Speed-vac, diluted with 1 mL distilled water, frozen at 80° C. and lyophilized overnight. The powder is resuspended in 0.5 mL Buffer C (0.1% TFA in water) per mL starting plasma and 0.25 mL are injected on a Hewlett-Packard 109OL liquid chromatograph using an Alltech C18 column (0.45×25 cm; 10 μm particle size) with a Brownlee 2 cm C18 guard column. The extraction is monitored at OD214 throughout the run and the solvent flow rate was 1 mL/minute. A gradient between Buffer C and Buffer D (0.1% TFA in acetonitrile) is set up over a 40 minute run time. The gradient starts at 35% D is held for the first 2 minutes after injection and then increased to 42% D over 24 minutes. The gradient is then increased to 60% D over the next two minutes, held at this level for 2 minutes and returned to 35% D over the next 2 minutes. The % D remains at 35% for the remaining 8 minutes of the run. Fractions are collected at 0.5 minute intervals for the first 30 minutes of each run and dried in a Speed-vac.

| Compound | Resistance to Degradation |
| --- | --- |
| CC[C@H](C)[C@H](NC(=O)[C@H](Cc1ccccc1)NC(=O)[C@H](CCC(=O)O)NC(=O)[C@H](CCCCN)NC(=O)[C@H](C)NC(=O)[C@H](C)NC(=O)[C@H](CCC(N)=O)NC(=O)CNC(=O)[C@H](CCC(=O)O)NC(=O)[C@H](CC(C)C)NC(=O)[C@H](Cc1ccc(O)cc1)NC(=O)[C@H](CO)NC(=O)[C@H](CO)NC(=O)[C@@H](NC(=O)[C@H](CC(=O)O)NC(=O)[C@H](CO)NC(=O)[C@@H](NC(=O)[C@H](Cc1ccccc1)NC(=O)[C@@H](NC(=O)CNC(=O)[C@H](CCC(=O)O)NC(=O)[C@H](C)NC(=O)[C@H](Cc1c[nH]cn1)NC(C)C)[C@@H](C)O)[C@@H](C)O)C(C)C)C(=O)N[C@@H](C)C(=O)N[C@@H](Cc1c[nH]c2ccccc12)C(=O)N[C@@H](CC(C)C)C(=O)N[C@H](C(=O)N[C@@H](CCCCN)C(=O)NCC(=O)N[C@@H](CCCNC(=N)N)C(=O)NCC(=O)O)C(C)C [(N-isopropyl-H)^7 GLP-1(7-37), (N-isopropyl-H)^7 -GLP-1(7-37)] | + |
| CC[C@H](C)[C@H](NC(=O)[C@H](Cc1ccccc1)NC(=O)[C@H](CCC(=O)O)NC(=O)[C@H](CCCCN)NC(=O)[C@H](C)NC(=O)[C@H](C)NC(=O)[C@H](CCC(N)=O)NC(=O)CNC(=O)[C@H](CCC(=O)O)NC(=O)[C@H](CC(C)C)NC(=O)[C@H](Cc1ccc(O)cc1)NC(=O)[C@H](CO)NC(=O)[C@H](CO)NC(=O)[C@@H](NC(=O)[C@H](CC(=O)O)NC(=O)[C@H](CO)NC(=O)[C@@H](NC(=O)[C@H](Cc1ccccc1)NC(=O)[C@@H](NC(=O)CNC(=O)[C@H](CCC(N)=O)NC(=O)[C@H](C)NC(=O)[C@@H](N)Cc1c[nH]cn1)[C@@H](C)O)[C@@H](C)O)C(C)C)C(=O)N[C@@H](C)C(=O)N[C@@H](Cc1c[nH]c2ccccc12)C(=O)N[C@@H](CC(C)C)C(=O)N[C@H](C(=O)N[C@@H](CCCCN)C(=O)NCC(=O)N[C@@H](CCCNC(=N)N)C(=O)NCC(=O)O)C(C)C [(Q)^9 GLP-1 (7-37)] | - |
| CC[C@H](C)[C@H](NC(=O)[C@H](Cc1ccccc1)NC(=O)[C@H](CCC(=O)O)NC(=O)[C@H](CCCCN)NC(=O)[C@H](C)NC(=O)[C@H](C)NC(=O)[C@H](CCC(N)=O)NC(=O)CNC(=O)[C@H](CCC(=O)O)NC(=O)[C@H](CC(C)C)NC(=O)[C@H](Cc1ccc(O)cc1)NC(=O)[C@H](CO)NC(=O)[C@H](CO)NC(=O)[C@@H](NC(=O)[C@H](CC(=O)O)NC(=O)[C@H](CO)NC(=O)[C@@H](NC(=O)[C@H](Cc1ccccc1)NC(=O)[C@@H](NC(=O)CNC(=O)[C@H](CCC(=O)O)NC(=O)[C@H](C)NC(=O)[C@@H](N)Cc1ccc(O)cc1)[C@@H](C)O)[C@@H](C)O)C(C)C)C(=O)N[C@@H](C)C(=O)N[C@@H](Cc1c[nH]c2ccccc12)C(=O)N[C@@H](CC(C)C)C(=O)N[C@H](C(=O)N[C@@H](CCCCN)C(=O)NCC(=O)N[C@@H](CCCNC(=N)N)C(=O)NCC(=O)O)C(C)C [(Y)^7 -GLP-1(7-37)] | - |
| HSQGTFTSDYSKYLDGQAAKEFIAWLVKGRG [(S)^8 (Q)^9 (Y)^16 (K)^18 (D)^21 -GLP-1(7-37)] | - |
